The text below walks through data of PubChem BioAssay AID743102 (Vanderbilt Specialized Chemistry Center, 2013).

For this assay, the target named is Muscarinic acetylcholine receptor M5 (Homo sapiens) (UniProt P08912). The assay is described as follows: human M5 potentiators of ACh EC20 response – cell-based, CHO-K1 hM5, Fluo-4 calcium flux, concentration-response, confirmation (AID 743102). To be noted: ACh EC20 PAM; for % ACh max response: at 30 µM (top of the series); for % ACh max: active compounds read high. (Calcium flux is commonly read through the fluorescence of an indicator in the cells.)
Sequence of Muscarinic acetylcholine receptor M5 (Homo sapiens) (P08912 whole entry, looked up): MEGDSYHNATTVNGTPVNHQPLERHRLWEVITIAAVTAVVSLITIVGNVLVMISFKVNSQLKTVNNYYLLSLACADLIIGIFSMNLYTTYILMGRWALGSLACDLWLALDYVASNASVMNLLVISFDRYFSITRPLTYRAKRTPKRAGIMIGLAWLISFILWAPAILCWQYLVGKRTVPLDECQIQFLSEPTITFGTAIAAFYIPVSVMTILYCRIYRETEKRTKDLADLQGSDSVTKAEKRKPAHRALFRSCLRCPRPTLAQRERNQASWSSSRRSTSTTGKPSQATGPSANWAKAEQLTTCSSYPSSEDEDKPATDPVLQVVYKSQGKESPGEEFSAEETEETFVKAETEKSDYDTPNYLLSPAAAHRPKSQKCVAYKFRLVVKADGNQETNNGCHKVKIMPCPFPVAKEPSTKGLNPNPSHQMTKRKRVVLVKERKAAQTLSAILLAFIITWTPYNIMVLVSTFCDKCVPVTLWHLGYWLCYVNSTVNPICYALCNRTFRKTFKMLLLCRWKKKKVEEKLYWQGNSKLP

The structures appear in SMILES notation. pEC50: −log10 of the molar value. Activity calls are given as the source filed them.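 The calls were made as follows: active = human M5 calcium response above 60% of the acetylcholine maximum, marking a potentiator (some results past the limit were not filed as active); inactive = the rest.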

The pEC50 is the negative decadic logarithm of the EC50, by convention in mol/L. Consider `CCN(Cc1ccccc1)C(=O)C1CCN(S(=O)(=O)c2ccc(OC(F)(F)F)cc2)CC1`, for which the pEC50 is 5.21.

With `O=C(C1CCN(S(=O)(=O)c2ccc3[nH]ncc3c2)CC1)N(CCF)Cc1ccccc1C(F)(F)F`, the pEC50 is 5.88.

`CCN(Cc1ccccc1OC)C(=O)C1CCN(S(=O)(=O)c2ccc3cn[nH]c3c2)CC1`: the pEC50 is 5.15.

For the compound `CCN(C(=O)C1CCN(S(=O)(=O)c2cc(F)c(F)c(F)c2)CC1)[C@H](C)c1ccccc1`, the pEC50 was 5.60.

In the case of `O=C1N(Cc2ccccc2)CCC12CCN(S(=O)(=O)c1ccc3c(c1)OCCO3)CC2`, the “% ACh max response” value is “inactive”.

On to `CCN(C(=O)C1CCN(S(=O)(=O)c2ccc(OC)cc2)CC1)[C@@H](C)c1ccccc1`, for which the “% ACh max response” value was “inactive”.

On to `CCN(C(=O)Cc1ccccc1)C1CCN(S(=O)(=O)c2ccc(OC)cc2)CC1`, for which the “% ACh max response” value was “inactive”.

Regarding `CCN(Cc1ccccc1OC(F)(F)F)C(=O)C1CCN(S(=O)(=O)c2ccc3cn[nH]c3c2)CC1`, the pEC50 is 5.46.

In the case of `CCc1ccc(S(=O)(=O)N2CCC(C(=O)N(CC)Cc3ccccc3)CC2)cc1`, the pEC50 was 5.43.

Take `CCN(Cc1ccccn1)C(=O)C1CCN(S(=O)(=O)c2ccc3cn[nH]c3c2)CC1`: the “% ACh max” value is “inactive”.

Turning to `CC(C)N(Cc1ccccc1C(F)(F)F)C(=O)C1CCN(S(=O)(=O)c2ccc3[nH]ncc3c2)CC1`, the “% ACh max” value is “inactive”.

With `C=CCN(Cc1ccccc1C(F)(F)F)C(=O)C1CCN(S(=O)(=O)c2ccc3[nH]ncc3c2)CC1`, the negative logarithm of the EC50 (pEC50) is 5.73.

As for `CCN(Cc1ccccc1)C(=O)[C@H]1CCCN(S(=O)(=O)c2ccc(OC)cc2)C1`, the “% ACh max response” value was “inactive”.

As for `CCN(Cc1ccccc1)C(=O)C1CCN(S(=O)(=O)c2ccc(Br)cc2)CC1`, the pEC50 is 5.41.

Regarding `CCN(C(=O)C1CCN(S(=O)(=O)c2ccc3[nH]ncc3c2)CC1)[C@H](C)c1ccccc1`, the pEC50 is 6.11.

Regarding `CCN(Cc1ccc(OC)cc1)C(=O)C1CCN(S(=O)(=O)c2ccc3cn[nH]c3c2)CC1`, the “% ACh max” value was “inactive”.

For `CCN(Cc1ccccc1)C(=O)C1CCN(S(=O)(=O)c2ccc(C(F)(F)F)cc2)CC1`, the “% ACh max” value was “inactive”.

For `CCN(C(=O)C1CCN(S(=O)(=O)c2ccc3[nH]ncc3c2)CC1)[C@H](C)c1ccccc1C(F)(F)F`, the pEC50 was 5.39.

In the case of `CCN(Cc1ccccc1C(F)(F)F)C(=O)C1CCN(S(=O)(=O)c2ccc3cn[nH]c3c2)CC1`, the negative-log EC50 (pEC50) is 6.38.

Regarding `CCN(Cc1ccccc1)C(=O)C1CCN(S(=O)(=O)c2ccc3occc3c2)CC1`, the negative logarithm of the EC50 (pEC50) was 5.85.

Regarding `CCN(Cc1cccc(F)c1)C(=O)C1CCN(S(=O)(=O)c2ccc3cn[nH]c3c2)CC1`, the pEC50 is 5.90.

As for `CCN(Cc1ccccc1)C(=O)C1CCN(S(C)(=O)=O)CC1`, the “% ACh max response” value was “inactive”.

Turning to `CCN(Cc1ccccc1F)C(=O)C1CCN(S(=O)(=O)c2ccc3cn[nH]c3c2)CC1`, the pEC50 was 5.68.

Take `CCN(C(=O)C1CCN(S(=O)(=O)c2ccc3c(c2)CCC3)CC1)[C@H](C)c1ccccc1`: the pEC50 is 6.12.

Regarding `CCN(Cc1ccccc1)C(=O)C1CCN(S(=O)(=O)c2ccc3cn[nH]c3c2)CC1`, the pEC50 is 5.68.

With `CCN(Cc1ccccc1C(F)(F)F)C(=O)C1CN(S(=O)(=O)c2ccc3[nH]ncc3c2)C1`, the “% ACh max response” value is “inactive”.

Consider `COc1ccc(S(=O)(=O)N2CCC(C(=O)NCc3ccccc3)CC2)cc1`, for which the “% ACh max response” value was “inactive”.

As for `CCN(Cc1ccccc1C(F)(F)F)C(=O)C1CCN(S(=O)(=O)c2ccc3[nH]ncc3c2)CC1`, the pEC50 is 6.64.

On to `CCN(Cc1cccc(OC)c1)C(=O)C1CCN(S(=O)(=O)c2ccc3cn[nH]c3c2)CC1`, for which the pEC50 is 5.57.

Regarding `CN(C)C(=O)C1(Cc2ccccc2)CCN(S(=O)(=O)c2ccc3occc3c2)CC1`, the “% ACh max response” value was “inactive”.

On to `CCN(C(=O)C1CCN(S(=O)(=O)c2ccc3occc3c2)CC1)[C@H](C)c1ccccc1`, for which the pEC50 is 6.04.

In the case of `CCN(Cc1ccccc1C(F)(F)F)C(=O)C1C2CN(S(=O)(=O)c3ccc4[nH]ncc4c3)CC21` (centres undefined), the “% ACh max response” value was “inactive”.

Take `O=C(NCc1ccccc1)C1CCN(S(=O)(=O)c2ccc3c(c2)OCCO3)CC1`: the “% ACh max response” value was “inactive”.

Consider `CCN(C(=O)C1CCN(S(=O)(=O)c2ccc(OC)cc2)CC1)[C@H](C)c1ccccc1`, for which the pEC50 is 5.97.

For `CCN(Cc1ccccc1C(F)(F)F)C(=O)C1CCN(S(=O)(=O)c2ccc(-n3cccn3)cc2)CC1`, the negative logarithm of the EC50 (pEC50) was 5.90.

For the compound `CCN(Cc1ccccc1)C(=O)C1CCN(S(=O)(=O)c2ccc(C)s2)CC1`, the pEC50 was 5.13.

Turning to `O=C(C1CCN(S(=O)(=O)c2ccc3[nH]ncc3c2)CC1)N(CCO)Cc1ccccc1C(F)(F)F`, the “% ACh max” value was “inactive”.

With `[2H]C([2H])(C)N(C(=O)C1CCN(S(=O)(=O)c2ccc3cn[nH]c3c2)CC1)[C@H](C)c1ccccc1`, the pEC50 is 6.28.

For the compound `CCN(Cc1ccccc1)C(=O)C1CCN(S(=O)(=O)c2cccc3c2OCCO3)CC1`, the “% ACh max” value was “inactive”.

With `CCN(C(=O)C1CCN(S(=O)(=O)c2ccc3c(c2)CCO3)CC1)[C@H](C)c1ccccc1`, the pEC50 is 6.01.

In the case of `CCN(Cc1ccccc1)C(=O)C1CCN(S(=O)(=O)c2ccc(OC)cc2)CC1`, the pEC50 was 5.45.

Take `CCN(Cc1ccccc1)C(=O)C1CCN(S(=O)(=O)c2ccccc2)CC1`: the negative logarithm of the EC50 (pEC50) is 5.27.

In the case of `CCN(Cc1ccccc1)C(=O)C1CCN(S(=O)(=O)c2cccc(C(F)(F)F)c2)CC1`, the “% ACh max” value is “inactive”.

For `O=C(C1CCN(S(=O)(=O)c2ccc3cn[nH]c3c2)CC1)N(Cc1ccccc1C(F)(F)F)C1CC1`, the “% ACh max response” value is “inactive”.

On to `C[C@@H](NC(=O)C1CCN(S(=O)(=O)c2ccc3[nH]ncc3c2)CC1)c1ccccc1`, for which the “% ACh max response” value was “inactive”.

For `CCN(Cc1ccccc1)C(=O)C1CCN(S(=O)(=O)c2ccc(C)cc2)CC1`, the pEC50 is 5.26.

For the compound `O=C(C1CCN(S(=O)(=O)c2ccc3[nH]ncc3c2)CC1)N(Cc1ccccc1C(F)(F)F)C1CC1`, the “% ACh max response” value is “inactive”.

For the compound `CCN(C(=O)C1CCN(S(=O)(=O)c2ccc3cn[nH]c3c2)CC1)C(C)c1ccccn1` (centres undefined), the “% ACh max” value is “inactive”.

For `O=C(C1CCN(S(=O)(=O)c2ccc3c(c2)OCCO3)CC1)N1CCc2ccccc2C1`, the “% ACh max response” value was “inactive”.

As to `CCN(C(=O)C1CCN(S(=O)(=O)c2ccc3cn[nH]c3c2)CC1)[C@H](C)c1ccccc1`, the pEC50 was 6.08.

Turning to `CCN(Cc1ccccc1)C(=O)C1CCN(S(=O)(=O)c2ccc(OC)c(OC)c2)CC1`, the “% ACh max” value is “inactive”.

Consider `CCN(Cc1ccccc1)C(=O)C1CCN(S(=O)(=O)c2ccc3[nH]ncc3c2)CC1`, for which the pEC50 was 5.78.

As to `CCN(Cc1ccccc1C#N)C(=O)C1CCN(S(=O)(=O)c2ccc3cn[nH]c3c2)CC1`, the pEC50 was 5.15.

In the case of `CCN(Cc1ccccc1)C(=O)C1CCN(S(=O)(=O)c2cccc(OC(F)F)c2)CC1`, the pEC50 is 5.40.

On to `CCN(Cc1ccccc1)C(=O)C1CCN(S(=O)(=O)c2cccc(OC)c2)CC1`, for which the pEC50 was 5.49.

On to `CCN(Cc1cccc(C)c1)C(=O)C1CCN(S(=O)(=O)c2ccc3cn[nH]c3c2)CC1`, for which the pEC50 is 6.00.

For `CCN(Cc1cccc(Cl)c1)C(=O)C1CCN(S(=O)(=O)c2ccc3cn[nH]c3c2)CC1`, the pEC50 is 5.78.

Regarding `CCCN(Cc1ccccc1C(F)(F)F)C(=O)C1CCN(S(=O)(=O)c2ccc3[nH]ncc3c2)CC1`, the pEC50 was 6.80.

On to `CCN(Cc1ccccc1)C(=O)C1CCN(S(=O)(=O)c2ccc(OC(F)F)cc2)CC1`, for which the pEC50 was 5.30.

As for `CCN(Cc1ccccc1)C(=O)C1CCN(S(=O)(=O)c2ccc(C(C)=O)cc2)CC1`, the pEC50 was 5.18.

On to `CCN(Cc1ccccc1)C(=O)C1CCN(S(=O)(=O)c2ccc(N3CCOCC3)nc2)CC1`, for which the “% ACh max” value is “inactive”.

With `CCN(Cc1ccccc1)C(=O)C1CCN(S(=O)(=O)C2CC2)CC1`, the “% ACh max response” value is “inactive”.

On to `CCN(Cc1ccccc1)C(=O)C1CCN(S(=O)(=O)c2cccc(Cl)c2)CC1`, for which the pEC50 was 5.32.

In the case of `CCN(Cc1ccccc1)C(=O)C1CCN(S(=O)(=O)c2ccc3nsnc3c2)CC1`, the pEC50 is 5.28.

Consider `CCN(Cc1ccccc1Cl)C(=O)C1CCN(S(=O)(=O)c2ccc3cn[nH]c3c2)CC1`, for which the pEC50 was 6.37.

Regarding `CCCc1ccc(S(=O)(=O)N2CCC(C(=O)N(CC)Cc3ccccc3)CC2)cc1`, the pEC50 was 5.49.

Turning to `CCN(Cc1ccccc1C(F)(F)F)C(=O)C1(F)CCN(S(=O)(=O)c2ccc3[nH]ncc3c2)CC1`, the pEC50 is 6.37.

As to `COc1ccc(S(=O)(=O)N2CCC(C(=O)N(C)Cc3ccccc3)CC2)cc1`, the “% ACh max” value was “inactive”.

`CCN(C(=O)C1CCN(S(=O)(=O)c2ccc3occc3c2)CC1)[C@H](C)c1ccccc1C(F)(F)F`: the “% ACh max response” value is “inactive”.

In the case of `CCN(Cc1ccccc1)C(=O)C1CCN(S(=O)(=O)c2ccc3ncccc3c2)CC1`, the “% ACh max” value is “inactive”.

For `CCN(Cc1ccccc1)C(=O)[C@@H]1CCCN(S(=O)(=O)c2ccc(OC)cc2)C1`, the “% ACh max response” value was “inactive”.

As for `CCN(Cc1ccccc1C)C(=O)C1CCN(S(=O)(=O)c2ccc3cn[nH]c3c2)CC1`, the pEC50 was 6.03.

On to `CCN(Cc1ccccc1)C(=O)C1CCN(S(=O)(=O)c2ccc3c(c2)OCCO3)CC1`, for which the pEC50 is 4.91.

Regarding `CCN(Cc1cccc(C#N)c1)C(=O)C1CCN(S(=O)(=O)c2ccc3cn[nH]c3c2)CC1`, the “% ACh max” value is “inactive”.

Turning to `CCN(Cc1cccc(C(F)(F)F)c1)C(=O)C1CCN(S(=O)(=O)c2ccc3cn[nH]c3c2)CC1`, the “% ACh max” value is “inactive”.

As for `CCN(C(=O)Cc1ccccc1)C1CCN(S(=O)(=O)c2ccc3c(c2)OCCO3)CC1`, the “% ACh max response” value is “inactive”.

As to `COc1ccc(S(=O)(=O)N2CCC3(CCN(Cc4ccccc4)C3=O)CC2)cc1`, the “% ACh max response” value was “inactive”.

As to `CCN(Cc1ccccc1Cl)C(=O)C1CCN(S(=O)(=O)c2ccc3[nH]ncc3c2)CC1`, the pEC50 is 6.47.

On to `CCN(C(=O)C1CCN(S(=O)(=O)c2ccc(-n3cccn3)cc2)CC1)[C@H](C)c1ccccc1`, for which the pEC50 was 6.15.
